From article PMC11053681, “Gold(I) and Silver(I) Complexes Containing Hybrid Sulfonamide/Thiourea Ligands as Potential Leishmanicidal Agents” (Pharmaceutics, 2024) come the findings set out here.

One series addresses LbOYE (Leishmania braziliensis, UniProt A4H6Z3). Briefly: Suppression of intrinsic tryptophan fluorescence of LbOYE. The format is binding. Conditions: 25 °C. The text has this: The recombinant LbOYE protein was produced using the methodology previously described. Briefly, the protein was expressed in strains of bacterial Escherichia coli BL21(DE3) through induction by IPTG using the pET28a:LbOYE vector. The enzyme was purified through a chromatography step of capture by nickel affinity, as the pET28a vector allows the expression of a polyhistidine fusion peptide, located at the N-terminal end of the protein. After affinity purification, the polyhistidine tail was excised by “overnight” incubation with thrombin, and the second purification step was performed using size exclusion chromatography. Purification was evaluated by SDS-PAGE and protein concentration was estimated by spectrophotometry.
The emission spectra of the intrinsic fluorescence of the tryptophan were recorded using a Shimadzu F-4500 spectrofluorometer in the range of 310–420 nm, with opening of slits of excitation and emission at 5.0 nm and λex = 295 nm. Interaction analyzes between LbOYE and ligands were performed at λmax = 333 nm.
The compounds were solubilized in DMSO and then we made successive dilutions in a Tris-HCl 25 mmol L^−1 buffer, pH 8.0, containing 100 mmol L^−1 of NaCl. For all experiments, the final concentration of DMSO was kept constant and equal to 2.5%. Solutions with increasing concentrations of ligand and constant concentration of LbOYE (1 µmol L^−1) were prepared, which were kept at 25 °C for a period of 1h before acquisition of fluorescence emission spectra.
The results were obtained from the fluorescence emission spectra of the intrinsic tryptophan probe in the presence of the compounds HL1^Ch, HL3^FPh, HL5^NO2Ph, [Au(HL1^Ch)2]Cl and [Ag(HL3^FPh)2]NO3. The bonding parameters were determined by the Hill plot, obtaining the dissociation constant (Kd) through the non-linear adjustment of the saturation curve to the experimental data. The double-log plot was used to determine the bonding constant and the number of bonding sites (n). It also allows the calculation of the bonding constant (Kb) and Kd from 1/Kb.
Equation (1)—Hill’s equation:(1) F0−F/F0=[L]/L+Kd
Equation (2)—Double-log:(2) logF0−F/F0=nlogKb−nlog1/L−(F0−F)[P0]/F
Equation (3)—Equation of Stern–Volmer:(3) F0/F=1+KSV[L]
The study of fluorescence quenching can be affected when the ligand has absorption bands that coincide with excitation and emission wavelengths of fluorescence. This interference is called the internal filter effect, which can be minimized using the procedure described by Equation (4). Fobs and Fcor are the fluorescence intensities at 333 nm measured and corrected, respectively; l represents the optical step where the absorption and emission of light occurs and C0 is the concentration of the ligand.
For the correction of the internal filter effect, were used the molar absorptivity coefficient values in the excitation (295 nm) and emission (333 nm) lengths, [λ/ε (L mol^−1 cm^−1)]; HL1^Ch (εex = 373 and εem = 117), HL3^FPh (εex = 1191 and εem = 57), HL5^NO2Ph (εex = 6162 and εem = 9124), Au1 (εex = 7045 and εem = 4008) and Ag3 (εex = 9431 and εem = 3281).

A further series concerns Vero cells. Kind of series: Cytotoxicity assay on Vero cells (resazurin). The format is cell-based, African green monkey. To be noted: 24 h treatment. The gist of the method: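 Vero cells seeded at 5 × 10^5 cells/well, grown 24 h at 37 °C, 5% CO2 in RPMI with 10% FBS. Compounds tested in triplicate by serial dilution from 500 µM to 3.9 µM for 24 h. Viability read as resazurin fluorescence.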
For orientation: Alamar Blue is a resazurin reagent that responds to reducing activity.

SMILES strings stand for the structures. Like-named read-outs stand apart in the source and are kept apart here.

LbOYE, sequence (A4H6Z3 entry or part of it): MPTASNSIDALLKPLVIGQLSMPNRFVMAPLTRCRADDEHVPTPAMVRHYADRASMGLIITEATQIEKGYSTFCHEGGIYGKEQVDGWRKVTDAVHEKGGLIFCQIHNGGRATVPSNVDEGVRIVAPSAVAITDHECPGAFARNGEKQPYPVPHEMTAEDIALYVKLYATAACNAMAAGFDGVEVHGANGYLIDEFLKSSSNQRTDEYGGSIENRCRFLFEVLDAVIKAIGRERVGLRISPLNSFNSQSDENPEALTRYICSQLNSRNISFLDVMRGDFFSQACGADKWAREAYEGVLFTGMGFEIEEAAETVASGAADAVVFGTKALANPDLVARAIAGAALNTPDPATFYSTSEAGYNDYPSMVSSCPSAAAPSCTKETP

One may read the Kd as the free concentration of one partner at which half of the binding sites on the other are occupied at equilibrium, for simple one-to-one binding. The term CC50 denotes the concentration that lowers cell viability or growth by half. A higher CC50 goes with lower toxicity to the cells. For the compound `Cc1ccc(S(=O)(=O)NNC(Nc2ccc(F)cc2)=[S][Ag+][S]=C(NNS(=O)(=O)c2ccc(C)cc2)Nc2ccc(F)cc2)cc1.O=[N+]([O-])[O-]` [Ag3, [Ag(HL3^FPh)2]NO3], the Kd at LbOYE (Hill plot (n = 1), Equation (1), Tris-HCl pH 8.0, 2.5% DMSO, read-out: Kd * (Hill plot)) was 9.6 ± 0.7 µM; at LbOYE (double log, Equation (2), Kd = 1/Kb, read-out: Kd ** (double log) (converted)), 11.2 ± 0.3 µM. The “Ksv *** (Stern–Volmer constant)” value on LbOYE (Stern–Volmer, Equation (3)) is reported as 23 ± 2 × 10^4. For the same compound, the “n ** (number of bonding sites)” value at LbOYE (double log, Equation (2)) is reported as 2.0 ± 0.1. Moreover, in the series on Vero cells, the 50% cytotoxic concentration (CC50) was > 500 µM.
